Patent publication US4318916A, “Antibiotic PS-5 and derivatives having β-lactamase inhibitory activity and production thereof” (Sanraku-Ocean Co., Ltd., priority 1977, dated 1982)
In brackets after ≈: the same amount, converted by molar mass. Counter-ions that a name gives are not always drawn.

Tests used:
[1] = tested on: Proteus vulgaris P-5; assay: Potentiation disc assay with cephaloridine (Table 10); format: cell-based; conditions: Proteus vulgaris P-5; for Inhibition zone With CER: 50 μg/ml cephaloridine in agar
Description: (A) Ten milliliters of molten nutrient agar containing 50 μg/ml of penicillin G or cephaloridine, 0.8% of Kyokuto Nutrient Broth Powder and 1.0% of Difco Bacto-Agar (pH 7.0) were seeded with the beta-lactam-resistant, beta-lactamase-producing microorganisms indicated in Tables 9 and 10, and poured in a 9-cm Petri dish to provide the bio-assay agar plate. On this assay plate, 8-mm pulp discs containing 25 μl each of antibiotic PS-5 solutions at the indicated concentrations were placed and incubated at 35° C. for 18 hours before reading the inhibition zones. The control assay plate was similarly prepared without penicillin G nor cephaloridine. As reference antibiotics, penicillin G, ampicillin, oxacillin and cefazolin were disc-assayed under the same conditions.

[2] = tested on: Staphylococcus aureus FDA 209p; assay: MIC by broth dilution (Table 13); format: cell-based; conditions: FDA209P, 20 h; Staphylococcus aureus FDA 209p; read-out: MIC
Description: (§1) The MIC (minimum inhibitory concentration) values of the compound were determined on various pathogenic microorganisms including several resistant strains, utilizing the broth dilution method in BRAIN HEART INFUSION BROTH `Eiken` (EIKEN CHEMICAL CO., LTD.).
(§2) The results were read after incubation at 35° C. for 20 hours. The minimum inhibitory concentration (MIC) values means the lowest concentration unit of the tritylation product of the antibiotic PS-5 was no growth of the corresponding microorganism was observed under the above described conditions. As the control antibiotics,the solutions of ampicillin and cephaloridine were prepared in BRAIN HEART INFUSION BROTH `Eiken` (pH 7.0) at a concentration of 100 μg/ml and treated same as the test compound of the present invention.

[3] = tested on: Serratia marcescens S-18; assay: MIC by broth dilution (Table 13); format: cell-based; conditions: S18, 20 h
Description: as §1, §2

[4] = tested on: Enterobacter cloacae E-16; assay: MIC by broth dilution (Table 13); format: cell-based; conditions: E16, 20 h
Description: as §1, §2

[5] = tested on: Citrobacter freundii E-9; assay: MIC by broth dilution (Table 13); format: cell-based; conditions: E9, 20 h; Citrobacter freundii E-9; read-out: MIC
Description: as §1, §2

[6] = tested on: Streptococcus pyogenes NY-5; assay: MIC by broth dilution (Table 13); format: cell-based; conditions: NY5, 20 h; Streptococcus pyogenes NY-5; read-out: MIC
Description: as §1, §2

[7] = tested on: Proteus vulgaris P-5; assay: MIC by broth dilution (Table 13); format: cell-based; conditions: P5, 20 h; Proteus vulgaris P-5; read-out: MIC
Description: as §1, §2

[8] = tested on: Klebsiella pneumoniae K-2; assay: MIC by broth dilution (Table 13); format: cell-based; conditions: K2, 20 h; Klebsiella pneumoniae K-2; read-out: MIC
Description: as §1, §2

[9] = tested on: Enterobacter sp. E-8; assay: MIC by broth dilution (Table 13); format: cell-based; conditions: SP.E8, 20 h; Enterobacter sp. E-8; read-out: MIC
Description: as §1, §2

[10] = tested on: Proteus rettgeri P-7; assay: MIC by broth dilution (Table 13); format: cell-based; conditions: Providencia rettgeri, P7, 20 h; Proteus rettgeri P-7; read-out: MIC
Description: as §1, §2

[11] = tested on: Enterobacter aerogenes E-19; assay: MIC by broth dilution (Table 13); format: cell-based; conditions: Klebsiella aerogenes, E19, 20 h
Description: as §1, §2

[12] = tested on: Sarcina lutea S-19; assay: MIC by broth dilution (Table 13); format: cell-based; conditions: Micrococcus luteus, S19, 20 h; Sarcina lutea S-19; read-out: MIC
Description: as §1, §2

[13] = tested on: Escherichia coli K12; assay: MIC by broth dilution (Table 13); format: cell-based; conditions: 20 h
Description: as §1, §2

[14] = tested on: Staphylococcus aureus Smith; assay: MIC by broth dilution (Table 13); format: cell-based; conditions: 20 h; Staphylococcus aureus Smith; read-out: MIC
Description: as §1, §2

[15] = tested on: Alcaligenes faecalis B-326; assay: MIC by broth dilution (Table 13); format: cell-based; conditions: Alcaligenes faecalis, B326, 20 h
Description: as §1, §2

[16] = tested on: Proteus mirabilis P-6; assay: MIC by broth dilution (Table 13); format: cell-based; conditions: Proteus mirabilis, P6, 20 h
Description: as §1, §2

[17] = tested on: Pseudomonas aeruginosa P-1; assay: MIC by broth dilution (Table 13); format: cell-based; conditions: P1, 20 h; Pseudomonas aeruginosa P-1; read-out: MIC
Description: as §1, §2

[18] = tested on: Diplococcus pneumoniae Type III; assay: MIC by broth dilution (Table 13); format: cell-based; conditions: Streptococcus pneumoniae, 20 h; Diplococcus pneumoniae Type III; read-out: MIC
Description: as §1, §2

[19] = tested on: Staphylococcus aureus Smith; assay: Therapeutic activity of antibiotic PS-5 sodium salt in infected mice; format: in vivo; conditions: sc; male ddy mice infected i.p. with 5×10^5 cells/mouse Staphylococcus aureus Smith; subcutaneously injected soon after infection; read-out: 50% curative dose
Text: The therapeutic activity of the antibiotic PS-5 sodium salt was studied by treating mice intraperitoneally infected with 5×10^5 cells/mouse of Staphylococcus aureus Smith. Soon after the infection, an aqueous solution of the antibiotic PS-5 sodium salt was subcutaneously injected.

[20] = tested on: Comamonas terrigena B-996; assay: Disc bio-assay of antimicrobial activity, cephaloridine equivalent units; format: cell-based; conditions: Comamonas-cephaloridine units per mg of the final purified preparation
Description: The overnight culture of Comamonas terrigena B-996 on a nutrient agar slant was suspended in nutrient broth so as to give an optical cell density of 0.040 at 610 nm.
The seed suspension was added in a 1% amount to a molten agar medium containing 0.8% Kyokuto Nutrient Broth Powder (Kyokuto Pharmaceutical Industries Co.) and 1.0% Bacto-Agar (Difco Laboratories). Seven milliliters of the seeded molten agar medium were distributed in a Petri dish (9 cm in diameter) and solidified). This is defined as a Comamonas assay plate.
An 8 mm pulp disc was usually soaked with a sample solution to be assayed, left on a clean sheet of filter paper for a sufficient time to remove the excess solution and then transferred onto an assay plate. After incubation at 35° C. for 20 hours, the diameter of the observed inhibition zone was measured and compared with standard solutions of cephaloridine. The antimicrobial activity of the antibiotic PS-5 and related compounds is expressed as cephaloridine equivalent units/ml.
As well known to those skilled in the art, the assay standard curve varies to some extent, depending on the species of the test microorganisms. […]

[21] = tested on: male ddy mice; format: in vivo; conditions: 500 mg/kg intraperitoneally
Description: An aqueous solution of the antibiotic PS-5 sodium salt was intraperitoneally administered to male ddy mice (Shizuoka) at the dose of 500 mg/kg.

[22] = Solubility of antibiotic PS-5; format: physicochemical; conditions: sodium salt preparation of Example 9

`CC1(C)S[C@@H]2[C@H](NC(=O)[C@H](N)c3ccccc3)C(=O)N2[C@H]1C(=O)O` [Ampicillin, ampicillin] gave a zone of inhibition at 625 µg/mL ([1]; P5, 18 h, reference antibiotic 625 μg/ml, read-out: Inhibition zone Without CER) of 0 mm, a zone of inhibition at 2500 µg/mL ([1]; P5, 18 h, reference antibiotic 2,500 μg/ml, read-out: Inhibition zone Without CER) of 0 mm and a zone of inhibition at 10000 µg/mL ([1]; P5, 18 h, reference antibiotic 10,000 μg/ml, read-out: Inhibition zone Without CER) of 14.7 mm. The “Potentiation of the antimicrobial activity of cephaloridine” value ([1]; disc assay, Table 10) was “could not increase the antimicrobial activity of cephaloridine”, the “Inhibition zone With CER” value ([1]; reference antibiotic 625 μg/ml) was 0 mm and the “Inhibition zone With CER” value ([1]; reference antibiotic 2,500 μg/ml) was 0 mm. The “Inhibition zone With CER” value ([1]; reference antibiotic 10,000 μg/ml) was 12.9 mm, the MIC [2] was 0.2 µg/mL (≈ 0.572 µM) and the MIC [3] was 50 µg/mL (≈ 143 µM). The MIC [4] was greater than 100 µg/mL, the MIC [5] was greater than 100 µg/mL and the MIC [6] was 0.02 µg/mL (≈ 0.0572 µM). The MIC [7] was greater than 100 µg/mL, the MIC [8] was greater than 100 µg/mL and the MIC [9] was greater than 100 µg/mL. It also gave an MIC [10] of 50 µg/mL (≈ 143 µM), an MIC [11] greater than 100 µg/mL and an MIC [12] of 0.05 µg/mL (≈ 0.143 µM). For the same compound, the MIC [13] was 3.13 µg/mL (≈ 8.96 µM), the MIC [14] was 0.2 µg/mL (≈ 0.572 µM) and the MIC [15] was 6.25 µg/mL (≈ 17.9 µM). It also gave an MIC [16] of 3.13 µg/mL (≈ 8.96 µM), an MIC [17] of 50 µg/mL (≈ 143 µM) and an MIC [18] of 0.04 µg/mL (≈ 0.114 µM).
For `CCC1C(=O)N2C(C(=O)O)=C(SCCNC(C)=O)CC12` (centres unmarked) [antibiotic PS-5 sodium salt], the ED50 [19] was 2.45 mg/kg, the Specific activity [20] was 21,000 CCU/mg and the “Deaths after intraperitoneal administration” value [21] was “No dead was recorded”. For the same compound, the Solubility in acetone [22] was “substantially insoluble” and the Solubility in water [22] was “Soluble”.
